The values that follow come from the CombiSolv-Exp solvation set (Vermeire and Green 2021).

This data set is described as follows: solvent given as SMILES.

On to `C=CCCCC=C`, for which the “solvation free energy, 298 K” value (in CCCCOC(C)=O) was -18.5 kJ/mol; the “solvation free energy, 298 K” value (in CCOC(C)=O) was -19.2 kJ/mol; the “solvation free energy, 298 K” value (in O) worked out at 4.85 kJ/mol.
Regarding `ClCCBr`, the “solvation free energy, 298 K” value (in O) was -8.16 kJ/mol.
Regarding `CCCOCCC`, the “solvation free energy, 298 K” value runs as follows: (in C=CCCCCCCCCCCCCCC) -16.7 kJ/mol; (in CC(C)(C)O) -17.3 kJ/mol; (in CC(C)CO) -17.4 kJ/mol; (in CC(C)O) -16.8 kJ/mol; (in CCC(C)=O) -18.3 kJ/mol; (in CCC(C)O) -17.4 kJ/mol. The “solvation free energy, 298 K” value by setting is: (in CCCCCCCCCCCCCCCC) -16.8 kJ/mol; (in CCCCCCCCO) -16.9 kJ/mol; (in CCCCCCO) -17.2 kJ/mol; (in CCCCCl) -19.6 kJ/mol; (in CCCCO) -17.3 kJ/mol; (in CN(C)C=O) -15.1 kJ/mol. The “solvation free energy, 298 K” value reads like this: (in CO) -16.5 kJ/mol; (in ClC(Cl)(Cl)Cl) -20.2 kJ/mol; (in ClCCl) -21 kJ/mol; (in O) -5.15 kJ/mol; (in [2H]O[2H]) -5.73 kJ/mol.
`COc1ccc2c(c1)c(CC(=O)O)c(C)n2C(=O)c1ccc(Cl)cc1`: under “in O”, the “solvation free energy, 298 K” value was -63.2 kJ/mol.
On to `Clc1ccc(-c2ccc(Cl)cc2Cl)cc1`, for which the “solvation free energy, 298 K” value (in CCCCCCCCO) is -44.8 kJ/mol and the “solvation free energy, 298 K” value (in O) is -11.6 kJ/mol.
As for `O=C1c2ccccc2C(=O)c2c(Cl)cccc21`, the “solvation free energy, 298 K” value reads like this: (in C1CCOC1) -62.7 kJ/mol; (in CC(=O)N(C)C) -62.3 kJ/mol; (in CC(C)(C)O) -52.8 kJ/mol; (in CC(C)CC(C)(C)C) -50.3 kJ/mol; (in CC(C)CC(C)O) -53.1 kJ/mol; (in CC(C)CCO) -53.2 kJ/mol. For the same molecule, the “solvation free energy, 298 K” value was -52.6 kJ/mol (in CC(C)CO); -52.6 kJ/mol (in CC(C)O); -53.2 kJ/mol (in CCC(C)O); -53.5 kJ/mol (in CCCC(C)CO); -53.4 kJ/mol (in CCCC(C)O); -51 kJ/mol (in CCCCCC). In addition, the “solvation free energy, 298 K” value reads like this: (in CCCCCCC) -51.5 kJ/mol; (in CCCCCCCC) -51.6 kJ/mol; (in CCCCCCCCCC) -52 kJ/mol; (in CCCCCCCCCCO) -54.9 kJ/mol; (in CCCCCCCCO) -54.8 kJ/mol; (in CCCCCCCO) -54.7 kJ/mol. Moreover, the “solvation free energy, 298 K” value is -54.6 kJ/mol (in CCCCCCO); -54.1 kJ/mol (in CCCCCO); -58.3 kJ/mol (in CCCCCOC(C)=O); -53.6 kJ/mol (in CCCCO); -58.7 kJ/mol (in CCCCOC(C)=O); -54.6 kJ/mol (in CCCCOCCCC). The “solvation free energy, 298 K” value reads like this: (in CCCO) -53.6 kJ/mol; (in CCCOC(C)=O) -59 kJ/mol; (in CCOC(C)=O) -59.4 kJ/mol; (in CCOCC) -56.3 kJ/mol; (in CO) -53.3 kJ/mol; (in COC(C)(C)C) -56.1 kJ/mol. Besides, the “solvation free energy, 298 K” value runs as follows: (in COC(C)=O) -59.9 kJ/mol; (in Fc1ccccc1) -61.2 kJ/mol; (in O) -34.4 kJ/mol.
Take `O=Cc1ccncc1`: where the note is “in O”, the “solvation free energy, 298 K” value is -29.3 kJ/mol.
For the molecule `FC(F)(F)c1cccc(C(F)(F)F)c1`, the “solvation free energy, 298 K” value (in O) turned out to be 4.48 kJ/mol.
For the molecule `O=C(OC1CCCCCC1)c1ccccc1C(=O)OC1CCCCCC1`, under “in O”, the “solvation free energy, 298 K” value was -37.1 kJ/mol.
Turning to `COc1cc(Cc2cnc(N)nc2N)cc(OC)c1OC`, the “solvation free energy, 298 K” value reads like this: (in C1CCOC1) -83.4 kJ/mol; (in CC(C)O) -80.5 kJ/mol; (in CCC(C)O) -81.3 kJ/mol; (in CCCCO) -81.5 kJ/mol; (in CCCO) -82.8 kJ/mol; (in CCO) -83 kJ/mol. Further, the “solvation free energy, 298 K” value (in CO) was -86.1 kJ/mol.
As to `CCCN(C)N=O`, where the note is “in CC(C)CC(C)(C)C”, the “solvation free energy, 298 K” value was -20.9 kJ/mol.
In the case of `CCCCCCCOC(=O)c1ccccc1C(=O)OCCCCC`, the “solvation free energy, 298 K” value (in O) is -28.4 kJ/mol.
On the same count and under the same terms, the value for `CCCCC(C)O` (stereo not drawn) was -17.9 kJ/mol; that for `C=C(C)C1CCC2(C)CCC=C(C)C2C1` (stereo not drawn) was -0.669 kJ/mol.
The same measure, in the same setting: the result for `CC(=O)CC(=O)C(C)(C)C` reads -21.4 kJ/mol.
On to `CCc1ccccc1O`, for which the “solvation free energy, 298 K” value runs as follows: (in CCCCCC) -27.6 kJ/mol; (in O) -24.5 kJ/mol.
Regarding `Oc1cccc(Cl)c1`, the “solvation free energy, 298 K” value (in CCCCCC) is -27.3 kJ/mol; the “solvation free energy, 298 K” value (in CCCCCCC) is -27.2 kJ/mol; the “solvation free energy, 298 K” value (in CCCCCCCC) was -27.1 kJ/mol; the “solvation free energy, 298 K” value (in CCCCCCCCCC) was -27.1 kJ/mol; the “solvation free energy, 298 K” value (in Cc1ccc(C)cc1) is -33.3 kJ/mol; the “solvation free energy, 298 K” value (in Cc1cccc(C)c1) was -33.7 kJ/mol. In addition, the “solvation free energy, 298 K” value (in Cc1ccccc1C) was -33.8 kJ/mol and the “solvation free energy, 298 K” value (in O) was -27.7 kJ/mol.
For the molecule `O=C(O)c1cccnc1Nc1cccc(C(F)(F)F)c1`, the “solvation free energy, 298 K” value runs as follows: (in C1COCCO1) -75 kJ/mol; (in CC(C)=O) -74.1 kJ/mol; (in CCCCCCCCO) -71.5 kJ/mol; (in CCOC(C)=O) -72.4 kJ/mol; (in CCOCC) -68.9 kJ/mol; (in CN(C)C=O) -79.7 kJ/mol. The “solvation free energy, 298 K” value is -65 kJ/mol (in Clc1ccccc1), -67.5 kJ/mol (in NC=O) and -53.7 kJ/mol (in O).
For the molecule `CC(=O)CC(=O)c1ccccc1`, the “solvation free energy, 298 K” value runs as follows: (in CCCCCC) -32.3 kJ/mol; (in CCCCCCC) -32.9 kJ/mol; (in CCCCCCCC) -32.5 kJ/mol; (in CCCCCCCCCC) -32.5 kJ/mol.
In the case of `CCCCN(CCCC)N=O`, the “solvation free energy, 298 K” value (in CC(C)CC(C)(C)C) was -32.8 kJ/mol and the “solvation free energy, 298 K” value (in O) was -20.5 kJ/mol.
As for `COC(=O)c1ccc(OC)cc1`, under “in O”, the “solvation free energy, 298 K” value is -22.3 kJ/mol.
For the molecule `COc1ccc(NS(=O)(=O)c2ccc(N)cc2)nn1`, for the setting “in O”, the “solvation free energy, 298 K” value was -88.4 kJ/mol.
Still for that read-out and setting: the result for `CCCCNCc1ccc(C)cc1` reads -22.9 kJ/mol.
For the molecule `c1ccc2c(c1)sc1ccccc12`, the “solvation free energy, 298 K” value was -48.2 kJ/mol (in CC(=O)N(C)C), -44.3 kJ/mol (in CCCCCCCCC=CCCCCCCCC(=O)OCC(COC(=O)CCCCCCCC=CCCCCCCCC)OC(=O)CCCCCCCC=CCCCCCCCC), -48.7 kJ/mol (in CN1CCCC1=O) and -16.9 kJ/mol (in O).
In the case of `CCCCCCCCCCCCc1ccccc1`, the “solvation free energy, 298 K” value is -48 kJ/mol (in CCC(C)=O); -49.3 kJ/mol (in CCCCCCC); -42 kJ/mol (in CCO); -43.4 kJ/mol (in O=Cc1ccco1); -32.2 kJ/mol (in OCCOCCO).
As to `CCCC#N`, the “solvation free energy, 298 K” value runs as follows: (in C=CCCCCCCCCCCCCCC) -14.8 kJ/mol; (in CC(C)(C)O) -19.5 kJ/mol; (in CC(C)CO) -19.1 kJ/mol; (in CC(C)O) -19.2 kJ/mol; (in CCC(C)O) -19.1 kJ/mol; (in CCCCCC) -15.7 kJ/mol. For the same molecule, the “solvation free energy, 298 K” value was -15.4 kJ/mol (in CCCCCCC); -13.9 kJ/mol (in CCCCCCCCCCCCCCCC); -16.4 kJ/mol (in CCCCCCCCCCO); -17 kJ/mol (in CCCCCCCCCO); -17.7 kJ/mol (in CCCCCCCCO); -18.1 kJ/mol (in CCCCCCCO). Further, the “solvation free energy, 298 K” value (in CCCCCCO) was -18.1 kJ/mol; the “solvation free energy, 298 K” value (in CCCCCO) was -18.7 kJ/mol; the “solvation free energy, 298 K” value (in CCCCO) was -19.3 kJ/mol; the “solvation free energy, 298 K” value (in CO) was -21.8 kJ/mol; the “solvation free energy, 298 K” value (in O) is -15.2 kJ/mol; the “solvation free energy, 298 K” value (in [2H]O[2H]) was -15 kJ/mol.
For `Nc1ccc(-c2ccc(N)cc2)cc1`, where the note is “in Cc1ccccc1C”, the “solvation free energy, 298 K” value was -65.5 kJ/mol.
In the case of `CCCCCCCOC(=O)c1ccccc1C(=O)OCCCCCC`, for the setting “in O”, the “solvation free energy, 298 K” value is -27.9 kJ/mol.
As for `CCCCCC(C)=O`, the “solvation free energy, 298 K” value is -20.9 kJ/mol (in CC(C)CCCC(C)CCCC(C)CCCCC(C)CCCC(C)CCCC(C)C); -22.4 kJ/mol (in CCCCCC); -21.8 kJ/mol (in CCCCCCC); -22 kJ/mol (in CCCCCCCC); -21.7 kJ/mol (in CCCCCCCCCC); -21.2 kJ/mol (in CCCCCCCCCCCCCCCC). Further, the “solvation free energy, 298 K” value (in CCCCCCCCO) is -23.6 kJ/mol; the “solvation free energy, 298 K” value (in CCCCOCCCC) is -24 kJ/mol; the “solvation free energy, 298 K” value (in CO) is -25 kJ/mol; the “solvation free energy, 298 K” value (in NC=O) was -19.9 kJ/mol; the “solvation free energy, 298 K” value (in O) was -12.9 kJ/mol; the “solvation free energy, 298 K” value (in [2H]O[2H]) was -12.8 kJ/mol.
For `Cc1nnc(NS(=O)(=O)c2ccc(N)cc2)s1`, the “solvation free energy, 298 K” value (in O) is -80.7 kJ/mol.
With `OC1CCCC1`, the “solvation free energy, 298 K” value runs as follows: (in C1COCCO1) -26.5 kJ/mol; (in CC(C)=O) -26.3 kJ/mol; (in O) -23 kJ/mol.
With `Cc1cnccn1`, under “in O”, the “solvation free energy, 298 K” value was -23.1 kJ/mol.
Regarding `O=C(O)c1ccc(CCl)cc1`, the “solvation free energy, 298 K” value is, setting by setting: (in C=CCCCCCCCCCCCCCC) -36.4 kJ/mol; (in O) -38.6 kJ/mol.
Take `Nc1ccc([N+](=O)[O-])cc1Cl`: the “solvation free energy, 298 K” value (in O) is -36.6 kJ/mol.
For `CC(C)=CC(C)(C)C`, the “solvation free energy, 298 K” value (in CCC(C)=O) was -18.4 kJ/mol and the “solvation free energy, 298 K” value (in O) is 7.7 kJ/mol.
With `C=C(C)C1CCC2(CO)CCC3(C)C(CCC4C5(C)CCC(O)C(C)(C)C5CCC43C)C12` (stereo not drawn), the “solvation free energy, 298 K” value runs as follows: (in CC(C)=O) -117 kJ/mol; (in CCCCCCO) -114 kJ/mol; (in CCCCCO) -115 kJ/mol; (in CCCCO) -117 kJ/mol; (in CCCO) -116 kJ/mol; (in CCO) -116 kJ/mol. Further, the “solvation free energy, 298 K” value is, setting by setting: (in CCOC(C)=O) -116 kJ/mol; (in CO) -114 kJ/mol; (in COC(C)=O) -115 kJ/mol; (in ClC(Cl)Cl) -119 kJ/mol; (in ClCCl) -116 kJ/mol; (in O) -59.3 kJ/mol.
As for `COc1cc(C2c3cc4c(cc3C(O)C3COC(=O)C23)OCO4)cc(OC)c1OC` (stereo not drawn), the “solvation free energy, 298 K” value (in CC(C)O) is -105 kJ/mol and the “solvation free energy, 298 K” value (in CCO) was -106 kJ/mol.
On to `c1ccc2c(c1)OCCOCCOCCOCCOCCO2`, for which the “solvation free energy, 298 K” value (in O) was -74.8 kJ/mol.
For `COCCOC(=O)c1ccccc1C(=O)OCCOC`, the “solvation free energy, 298 K” value (in O) was -56.4 kJ/mol.
For the molecule `CN(Cc1ccccc1)N=O`, under “in O”, the “solvation free energy, 298 K” value is -29.4 kJ/mol.
The same measure, in the same setting: the result for `CCC(O)CC` reads -18.2 kJ/mol.
Regarding `CNC=O`, the “solvation free energy, 298 K” value was -16.2 kJ/mol (in C1CCCCC1), -30.8 kJ/mol (in CC(C)=O), -15.4 kJ/mol (in CCCCCCC) and -37.1 kJ/mol (in O).
